Laboratory results from article PMC10817917, “Alkyl deoxyglycoside-polymyxin combinations against critical priority carbapenem-resistant gram-negative bacteria” (Scientific Reports, 2024).
“And” between values parts separate entries of the source, which are not always exact repeats. Identical values can stand only once. Like-named read-outs stand apart in the source and are kept apart here.

What was measured:
E. coli ATCC 25922 = assay: Broth microdilution MIC/MBC, glycosides with or without polymyxins; assay type: cell-based, Escherichia coli; details: for MIC: Escherichia coli, ATCC25922
Caco-2 cells = assay: Resazurin cell viability assay (cytotoxicity); assay type: cell-based, human; details: Homo sapiens, Caco-2, 72 h, read-out: IC50
Procedure, shortened: (§1)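 HEK-293T and Caco-2 cells (1.5 × 10^4/well, RPMI 1640 with 10% FBS) exposed 72 h at 37 °C to glycosides at final 100 to 10 µM, alone or with PMB or colistin at final 0.5, 0.25 or 0.125 µg/mL; max DMSO 0.33%. Resazurin added 4 h, read 570/600 nm; IC50 from dose-response fits, mean ± SD of three replicates.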

HEK-293T cells = assay: Resazurin cell viability assay (cytotoxicity); assay type: cell-based, human; details: 72 h, read-out: IC50
Procedure, shortened: as §1

E. cloacae CQ1941 = assay: Broth microdilution MIC/MBC, glycosides with or without polymyxins; assay type: cell-based; details: for MIC: Enterobacter cloacae, CQ1941
E. coli NCTC 13846 = assay: as above; assay type: cell-based, Escherichia coli; details: strain B
K. pneumoniae CQ1942 = assay: Broth microdilution MIC, glycosides with or without polymyxins; assay type: cell-based, Klebsiella pneumoniae; details: for MIC: Klebsiella pneumoniae, CQ1942
P. aeruginosa CQ4924 = assay: as above; assay type: cell-based, Pseudomonas aeruginosa; details: for MIC: Pseudomonas aeruginosa, CQ4924
[1] = alone, read-out: MICA (MIC of each compound individually)
[2] = combination with the lowest FICI
[3] = compound + colistin, lowest FICI

## CCCCCCCCCCCCO[C@@H]1O[C@H](C)C[C@H](O)[C@H]1O [Compound 2, dodecyl 4,6-dideoxy-α/β-D-xylo-hexopyranoside]
E. coli ATCC 25922; Cpd conc. 0.4 μg/mL, strain A
  MIC of colistin in combination with the compound: > 0.5 µg/mL
E. coli ATCC 25922; Cpd conc. 0.8 μg/mL, strain A
  MIC of colistin in combination with the compound: 0.5 µg/mL
E. coli ATCC 25922; Cpd conc. 3.125 μg/mL, strain A
  MIC of colistin in combination with the compound: ≤ 0.06 µg/mL
E. coli ATCC 25922; Cpd conc. 6.25 μg/mL, strain A
  MIC of colistin in combination with the compound: ≤ 0.06 µg/mL
E. coli ATCC 25922; Cpd conc. 12.5 μg/mL, strain A
  MIC of colistin in combination with the compound: ≤ 0.06 µg/mL
E. coli ATCC 25922; Cpd conc. […], strain A
  MIC of colistin in combination with the compound: 0.5 µg/mL
E. coli ATCC 25922; agent alone, no adjuvant (polymyxin conc. 0), strain A, read-out: MIC
  MIC: > 100 µg/mL
E. coli ATCC 25922; [1]
  MIC: > 100 µg/mL
E. coli ATCC 25922; PMB 0.5 μg/mL, strain A
  MIC of compound in combination with PMB: 0.8 µg/mL
E. coli ATCC 25922; colistin 0.06 μg/mL, strain A
  MIC of compound in combination with colistin: 3.1 µg/mL
E. coli ATCC 25922; colistin 0.125 μg/mL, strain A
  MBC of compound in combination with colistin: 3.1|3.1 μg/mL
  MIC of compound in combination with colistin: 3.1 μg/mL and 3.1|3.1 μg/mL
E. coli ATCC 25922; colistin 0.25 μg/mL, strain A
  MIC of compound in combination with colistin: 3.1 µg/mL
E. coli ATCC 25922; colistin 0.5 μg/mL, strain A
  MIC of compound in combination with colistin: 0.4 µg/mL
E. coli ATCC 25922; [2]
  MICA(A + B) (MIC of compound in combination with colistin): 3.125 mg/L
  MICB(A + B) (MIC of colistin in combination with compound): 0.06 mg/L
E. coli ATCC 25922; compound + colistin
  Interpretation (of FICI): Synergy (Values ≤ 0.5 were considered synergistic)
E. coli ATCC 25922; [3]
  FICI: 0.14
Caco-2 cells; Colistin 0.125 μg/mL
  IC50: 55.7 ± 0.52 µM
Caco-2 cells; Colistin 0.25 μg/mL
  IC50: 58.09 ± 0.33 µM
Caco-2 cells; Colistin 0.5 μg/mL
  IC50: 53.4 ± 5.35 µM
Caco-2 cells; No polymyxin
  IC50: 54.8 ± 0.61 µM
Caco-2 cells; PMB 0.25 μg/mL
  IC50: 58.8 ± 2.66 µM
Caco-2 cells; PMB 0.5 μg/mL
  IC50: 56.4 ± 3.9 µM
Caco-2 cells; tested alone (no polymyxin adjuvant)
  IC50: 17.4 µg/mL
HEK-293T cells; Homo sapiens, HEK-293T, Colistin 0.25 μg/mL
  IC50: 80.7 ± 6.08 µM
HEK-293T cells; Homo sapiens, HEK-293T, Colistin 0.5 μg/mL
  IC50: 84.1 ± 2.87 µM
HEK-293T cells; Homo sapiens, HEK-293T, No polymyxin
  IC50: 84.2 ± 2.59 µM
HEK-293T cells; Homo sapiens, HEK-293T, PMB 0.25 μg/mL
  IC50: 84.5 ± 1.52 µM
HEK-293T cells; Homo sapiens, HEK-293T, PMB 0.5 μg/mL
  IC50: 82 ± 2.9 µM
HEK-293T cells; Homo sapiens, HEK-293T, tested alone (no polymyxin adjuvant)
  IC50: 26.6 µg/mL
HEK-293T cells; No polymyxin
  IC50: 84.2 µM
E. cloacae CQ1941; Cpd conc. 0.4 μg/mL, strain D
  MIC of colistin in combination with the compound: 0.5 µg/mL
E. cloacae CQ1941; Cpd conc. 0.8 μg/mL, strain D
  MIC of colistin in combination with the compound: 0.5 µg/mL
E. cloacae CQ1941; Cpd conc. 3.125 μg/mL, strain D
  MIC of colistin in combination with the compound: 0.25 µg/mL
E. cloacae CQ1941; Cpd conc. 6.25 μg/mL, strain D
  MIC of colistin in combination with the compound: 0.25 µg/mL
E. cloacae CQ1941; Cpd conc. 12.5 μg/mL, strain D
  MIC of colistin in combination with the compound: 0.125 µg/mL
E. cloacae CQ1941; Cpd conc. […], strain D
  MIC of colistin in combination with the compound: 0.25 µg/mL
E. cloacae CQ1941; agent alone, no adjuvant (polymyxin conc. 0), strain D, read-out: MIC
  MIC: > 100 µg/mL
E. cloacae CQ1941; [1]
  MIC: > 100 µg/mL
E. cloacae CQ1941; PMB 0.25 μg/mL, strain D
  MIC of compound in combination with PMB: 12.5 µg/mL
E. cloacae CQ1941; PMB 0.5 μg/mL, strain D
  MIC of compound in combination with PMB: ≤ 0.1 µg/mL
E. cloacae CQ1941; colistin 0.06 μg/mL, strain D
  MIC of compound in combination with colistin: > 100 µg/mL
E. cloacae CQ1941; colistin 0.125 μg/mL, strain D
  MBC of compound in combination with colistin: 25 µg/mL
  MIC of compound in combination with colistin: 12.5 µg/mL
E. cloacae CQ1941; colistin 0.25 μg/mL, strain D
  MIC of compound in combination with colistin: 1.6 µg/mL
E. cloacae CQ1941; colistin 0.5 μg/mL, strain D
  MIC of compound in combination with colistin: ≤ 0.1 µg/mL
E. cloacae CQ1941; [2]
  MICA(A + B) (MIC of compound in combination with colistin): 12.5 mg/L
  MICB(A + B) (MIC of colistin in combination with compound): 0.125 mg/L
E. cloacae CQ1941; [3]
  FICI: 0.31
E. coli NCTC 13846; Cpd conc. 0.4 μg/mL
  MIC of colistin in combination with the compound: > 0.5 µg/mL
E. coli NCTC 13846; Cpd conc. 0.8 μg/mL
  MIC of colistin in combination with the compound: > 0.5 µg/mL
E. coli NCTC 13846; Cpd conc. 3.125 μg/mL
  MIC of colistin in combination with the compound: > 0.5 µg/mL
E. coli NCTC 13846; Cpd conc. 6.25 μg/mL
  MIC of colistin in combination with the compound: > 0.5 µg/mL
E. coli NCTC 13846; Cpd conc. 12.5 μg/mL
  MIC of colistin in combination with the compound: > 0.5 µg/mL
E. coli NCTC 13846; Cpd conc. […]
  MIC of colistin in combination with the compound: > 0.5 µg/mL
E. coli NCTC 13846; Escherichia coli, NCTC13846, agent alone, no adjuvant (polymyxin conc. 0), read-out: MIC
  MIC: > 100 µg/mL
E. coli NCTC 13846; PMB 0.25 μg/mL
  MIC of compound in combination with PMB: > 100 µg/mL
E. coli NCTC 13846; PMB 0.5 μg/mL
  MIC of compound in combination with PMB: > 100 µg/mL
E. coli NCTC 13846; colistin 0.06 μg/mL
  MIC of compound in combination with colistin: > 100 µg/mL
E. coli NCTC 13846; colistin 0.125 μg/mL
  MBC of compound in combination with colistin: > 100|> 100 μg/mL
  MIC of compound in combination with colistin: > 100|> 100 μg/mL
E. coli NCTC 13846; colistin 0.25 μg/mL
  MIC of compound in combination with colistin: > 100 µg/mL
E. coli NCTC 13846; colistin 0.5 μg/mL
  MIC of compound in combination with colistin: > 100 µg/mL
K. pneumoniae CQ1942; Cpd conc. 0.4 μg/mL, strain E
  MIC of colistin in combination with the compound: 0.5 µg/mL
K. pneumoniae CQ1942; Cpd conc. 0.8 μg/mL, strain E
  MIC of colistin in combination with the compound: 0.5 µg/mL
K. pneumoniae CQ1942; Cpd conc. 3.125 μg/mL, strain E
  MIC of colistin in combination with the compound: 0.5 µg/mL
K. pneumoniae CQ1942; Cpd conc. 6.25 μg/mL, strain E
  MIC of colistin in combination with the compound: 0.25 µg/mL
K. pneumoniae CQ1942; Cpd conc. 12.5 μg/mL, strain E
  MIC of colistin in combination with the compound: 0.25 µg/mL
K. pneumoniae CQ1942; Cpd conc. […], strain E
  MIC of colistin in combination with the compound: 0.5 µg/mL
K. pneumoniae CQ1942; agent alone, no adjuvant (polymyxin conc. 0), strain E, read-out: MIC
  MIC: > 100 µg/mL
K. pneumoniae CQ1942; [1]
  MIC: > 100 µg/mL
K. pneumoniae CQ1942; PMB 0.25 μg/mL, strain E
  MIC of compound in combination with PMB: > 100 µg/mL
K. pneumoniae CQ1942; PMB 0.5 μg/mL, strain E
  MIC of compound in combination with PMB: ≤ 0.1 µg/mL
K. pneumoniae CQ1942; colistin 0.06 μg/mL, strain E
  MIC of compound in combination with colistin: > 100 µg/mL
K. pneumoniae CQ1942; colistin 0.125 μg/mL, strain E
  MIC of compound in combination with colistin: > 100 µg/mL
K. pneumoniae CQ1942; colistin 0.25 μg/mL, strain E
  MIC of compound in combination with colistin: 6.3 µg/mL
K. pneumoniae CQ1942; colistin 0.5 μg/mL, strain E
  MIC of compound in combination with colistin: ≤ 0.1 µg/mL
K. pneumoniae CQ1942; [2]
  MICA(A + B) (MIC of compound in combination with colistin): 6.25 mg/L
  MICB(A + B) (MIC of colistin in combination with compound): 0.25 mg/L
K. pneumoniae CQ1942; compound + colistin
  Interpretation (of FICI): Additive (from 0.5 to 1.0 were additive)
K. pneumoniae CQ1942; [3]
  FICI: 0.53
P. aeruginosa CQ4924; Cpd conc. 0.4 μg/mL, strain H
  MIC of colistin in combination with the compound: > 0.5 µg/mL
P. aeruginosa CQ4924; Cpd conc. 0.8 μg/mL, strain H
  MIC of colistin in combination with the compound: > 0.5 µg/mL
P. aeruginosa CQ4924; Cpd conc. 3.125 μg/mL, strain H
  MIC of colistin in combination with the compound: > 0.5 µg/mL
P. aeruginosa CQ4924; Cpd conc. 6.25 μg/mL, strain H
  MIC of colistin in combination with the compound: 0.5 µg/mL
P. aeruginosa CQ4924; Cpd conc. 12.5 μg/mL, strain H
  MIC of colistin in combination with the compound: 0.5 µg/mL
P. aeruginosa CQ4924; Cpd conc. […], strain H
  MIC of colistin in combination with the compound: > 0.5 µg/mL
P. aeruginosa CQ4924; PMB 0.25 μg/mL, strain H
  MIC of compound in combination with PMB: > 100 µg/mL
P. aeruginosa CQ4924; agent alone, no adjuvant (polymyxin conc. 0), strain H, read-out: MIC
  MIC: > 100 µg/mL
P. aeruginosa CQ4924; [1]
  MIC: > 100 µg/mL
P. aeruginosa CQ4924; colistin 0.06 μg/mL, strain H
  MIC of compound in combination with colistin: > 100 µg/mL
P. aeruginosa CQ4924; colistin 0.125 μg/mL, strain H
  MIC of compound in combination with colistin: > 100 µg/mL
P. aeruginosa CQ4924; colistin 0.25 μg/mL, strain H
  MIC of compound in combination with colistin: > 100 µg/mL
P. aeruginosa CQ4924; colistin 0.5 μg/mL, strain H
  MIC of compound in combination with colistin: 6.3 µg/mL
P. aeruginosa CQ4924; [2]
  MICA(A + B) (MIC of compound in combination with colistin): 6.25 mg/L
  MICB(A + B) (MIC of colistin in combination with compound): 0.5 mg/L
P. aeruginosa CQ4924; compound + colistin
  Interpretation (of FICI): Additive (from 0.5 to 1.0 were additive)
P. aeruginosa CQ4924; [3]
  FICI: 0.53
